“Also recorded” adds a separate entry of the source.
Key:
[1] = test system: LMNB1 in TRE-FLAG-LMNB1 MEF; assay: Primary HCS assay, LMNB1 intensity, dose-response; assay type: cell-based, mouse; details: DOX medium, 48 h, ten-point dose-response
LMNB in HL-60 cells = details: cited from earlier work
ADLD patient fibroblasts = assay: Antiproliferative activity and expanded toxicity measurements; assay type: cell-based, human; details: high density, two-day exposure
TRE-FLAG-LMNB1 MEF = assay: Primary HCS assay, cell numbers; assay type: cell-based, mouse; details: 48 h
LMNB1 = details: cited from earlier work
[2] = test system: LMNB1 in TRE-FLAG-LMNB1 MEF; assay: Western blot of LMNB1 in TRE-FLAG-LMNB1 MEF; assay type: cell-based, mouse; details: 48 h, LMNB1/actin
[3] = test system: LMNA/C in TRE-FLAG-LMNB1 MEF; assay: Primary HCS assay, LMNA/C intensity; assay type: cell-based, mouse; details: 48 h
[4] = Solubility observation during SAR testing; assay type: physicochemical

Compound	Effect on LMNB1 levels in dose-response (in words) [1]	Cellular toxicity (in words) (TRE-FLAG-LMNB1 MEF)	other results
Cc1c(CNC(=O)c2nn3c(c2Cl)N[C@@H](c2ccccc2)C[C@@H]3C(F)(F)F)cnn1C [UPCMLDCBRC1040264]	abolished activity		
CC[C@@]1(O)C(=O)OCc2c1cc1n(c2=O)Cc2cc3ccccc3nc2-1 [camptothecin, (S)-( +)-camptothecin]	dose-dependent decreases in LMNB1 levels	cellular toxicity	Effect on LMNB levels (in words) (LMNB in HL-60 cells): reduce LMNB levels in HL-60 cells; Effect on cell numbers, nuclear morphology and cell size (in words) (ADLD patient fibroblasts): reduced cell numbers and caused cells to enlarge
CO[C@H]1/C=C\C=C(/C)C(=O)NC2=CC(=O)C(NCCN(C)C)=C(C[C@@H](C)C[C@H](OC)[C@H](O)[C@@H](C)/C=C(\C)[C@@H]1OC(N)=O)C2=O [alvespimycin]		significant cellular toxicity	Effect on LMNB1 (in words) (LMNB1): reduced LMNB1
O=C(NCc1ccco1)c1cc2nc(-c3ccc4c(c3)OCO4)cc(C(F)(F)F)n2n1 [MolPort-001–493–770]	very strong reduction of LMNB1, which was an artifact of image analysis		
COc1ccc(C2CC(c3ccccc3Cl)Nc3nc(N)nn32)cc1OC (stereo not shown) [CID 3154585]	limited response at the highest concentration tested		
Oc1ccc(-c2nc(-c3ccncc3)c(-c3ccc(F)cc3)[nH]2)cc1 [SB202190]	dose-dependent decreases in LMNB1 levels	no or low toxicity	Confirmation of LMNB1 reduction by Western blot (in words) [2]: concentration-dependently reduced both human-FLAG-LMNB1 and endogenous mouse LMNB1; Effect on LMNA/C expression, selectivity (in words) [3]: selectively reduced LMNB1 over LMNA/C
Oc1c2ccccc2c2c3c(cccc13)N=N2 [SP600125]	dose-dependent decreases in LMNB1 levels; also recorded: maximum response with SP600125 was small and the curve not sigmoidal	no or low toxicity	Confirmation of LMNB1 reduction by Western blot (in words) [2]: did not confirm; Effect on LMNA/C expression, selectivity (in words) [3]: selectively reduced LMNB1 over LMNA/C
COc1ccccc1NC(=S)N[C@@H](NC(=O)c1cccc(Br)c1)C(Cl)(Cl)Cl [UPCMLDCBRC1049772]	abolished activity		
CCOc1ccc(N([C@@H](C)C(=O)Nc2ccc(Br)c(C)c2)S(C)(=O)=O)cc1 [UPCMLDCBRC1002139]	not tolerated		
COc1ccc(C2CC(c3ccc(Cl)cc3Cl)Nc3nc(N)nn32)cc1OC (stereo not shown) [CID 3154587]	inactive		
CCOc1ccccc1C1CC(c2ccccc2)Nc2nc(N)nn21 (stereo not shown) [CID 3512343]	retained some activity		
COc1cccc(C2CC(c3ccccc3Cl)Nc3ncnn32)c1 (stereo not shown) [CID 663139]			Solubility (in words) [4]: caused solubility problems

Source: paper PMC11873125 (Scientific Reports, 2025)
